Reference: the NIST ThermoML archive (doi:10.1021/je034261a)
± gives the expanded uncertainty stated by the source.

Experiments:
[1] = molar heat capacity at constant pressure; settings: 101.33 kPa, Liquid, Small sample (50 mg) DSC
[2] = for mass density: 101.33 kPa, Liquid; for Normal melting temperature / Glass transition temperature: DTA

For CCCC[n+]1ccn(C)c1.O=S(=O)([N-]S(=O)(=O)C(F)(F)F)C(F)(F)F, the “molar heat capacity at constant pressure” value ([1]; 298.15 K) was 536.3 ± 11 J/K/mol, the “molar heat capacity at constant pressure” value ([1]; 323.15 K) was 543.9 ± 11 J/K/mol and the mass density ([2]; 296.45 K) was 1438.6 ± 2.6 kg/m3. The mass density ([2]; 304.15 K) was 1433.6 ± 2.7 kg/m3, the mass density ([2]; 313.45 K) was 1424.7 ± 2.8 kg/m3 and the mass density ([2]; 323.35 K) was 1414.2 ± 2.8 kg/m3. The mass density ([2]; 333.75 K) was 1405.4 ± 2.9 kg/m3, the Normal melting temperature ([2]; Crystal) was -2.0 ± 1 °C and the Glass transition temperature [2] was -86.0 ± 3 °C.
In the case of CCC[n+]1ccn(C)c1C.O=S(=O)([N-]S(=O)(=O)C(F)(F)F)C(F)(F)F, the “molar heat capacity at constant pressure” value ([1]; 298.15 K) is reported as 554.5 ± 11 J/K/mol, the “molar heat capacity at constant pressure” value ([1]; 323.15 K) is reported as 558.7 ± 11 J/K/mol and the mass density ([2]; 295.15 K) is reported as 1456.7 ± 6.1 kg/m3. The mass density ([2]; 304.25 K) was 1454.2 ± 6.4 kg/m3, the mass density ([2]; 313.65 K) was 1446.4 ± 6.7 kg/m3 and the mass density ([2]; 324.35 K) was 1438.6 ± 7 kg/m3. The mass density ([2]; 335.15 K) was 1427.5 ± 7.4 kg/m3, the mass density ([2]; 344.65 K) was 1415.5 ± 7.7 kg/m3 and the Glass transition temperature [2] was -82.0 ± 3 °C.
For CCn1cc[n+](C)c1.O=S(=O)([N-]S(=O)(=O)C(F)(F)F)C(F)(F)F, the “molar heat capacity at constant pressure” value ([1]; 298.15 K) was 524.3 ± 10 J/K/mol, the “molar heat capacity at constant pressure” value ([1]; 323.15 K) was 532.2 ± 11 J/K/mol and the mass density ([2]; 296.15 K) was 1521.3 ± 2.7 kg/m3. It also gave a mass density ([2]; 303.95 K) of 1515.9 ± 2.8 kg/m3, a mass density ([2]; 313.85 K) of 1506.5 ± 2.9 kg/m3 and a mass density ([2]; 323.45 K) of 1496.7 ± 3 kg/m3. For the same compound, the mass density ([2]; 333.65 K) was 1485.8 ± 3.1 kg/m3, the Glass transition temperature [2] was -92.0 ± 3 °C and the Normal melting temperature ([2]; Metastable crystal) was -17.0 ± 2 °C.
For CCn1cc[n+](C)c1C.O=S(=O)([N-]S(=O)(=O)C(F)(F)F)C(F)(F)F, the “molar heat capacity at constant pressure” value ([1]; 309.15 K) was 492.7 ± 9.9 J/K/mol, the “molar heat capacity at constant pressure” value ([1]; 323.15 K) was 498.8 ± 10 J/K/mol and the mass density ([2]; 296.15 K) was 1491.3 ± 2.7 kg/m3. The mass density ([2]; 303.75 K) was 1485.5 ± 2.7 kg/m3, the mass density ([2]; 313.55 K) was 1476.9 ± 2.8 kg/m3 and the mass density ([2]; 323.35 K) was 1468 ± 2.9 kg/m3. The mass density ([2]; 333.65 K) was 1457.2 ± 3 kg/m3 and the Normal melting temperature ([2]; Crystal) was 25.0 ± 1 °C.
With CCCCn1cc[n+](C)c1C.F[P-](F)(F)(F)(F)F [1-butyl-2,3-dimethylimidazolium hexafluorophosphate] the “molar heat capacity at constant pressure” value ([1]; 298.15 K) was 433.6 ± 8.7 J/K/mol, the “molar heat capacity at constant pressure” value ([1]; 323.15 K) was 449.1 ± 9 J/K/mol and the mass density ([2]; 295.65 K) was 1241.6 ± 4 kg/m3. The mass density ([2]; 313.15 K) was 1219 ± 4 kg/m3, the mass density ([2]; 323.15 K) was 1205.5 ± 4 kg/m3 and the Glass transition temperature [2] was -58.0 ± 3 °C.
For CCCCn1cc[n+](C)c1C.F[B-](F)(F)F [1-butyl-2,3-dimethylimidazolium tetrafluoroborate], the “molar heat capacity at constant pressure” value ([1]; 330.15 K) was 375.3 ± 7.5 J/K/mol, the “molar heat capacity at constant pressure” value ([1]; 372.15 K) was 406.5 ± 8.1 J/K/mol and the mass density ([2]; 300.15 K) was 1093.5 ± 3.5 kg/m3. It also gave a mass density ([2]; 313.15 K) of 1076.2 ± 3.5 kg/m3, a mass density ([2]; 323.15 K) of 1063.4 ± 3.5 kg/m3 and a Normal melting temperature ([2]; Crystal) of 37.0 ± 1 °C. It also gave a Glass transition temperature [2] of -68.0 ± 3 °C.
In the case of CCCCn1cc[n+](C)c1.[Br-] [1-butyl-3-methylimidazolium bromide], the “molar heat capacity at constant pressure” value ([1]; 298.15 K) is reported as 316.7 ± 13 J/K/mol, the “molar heat capacity at constant pressure” value ([1]; 323.15 K) is reported as 323.6 ± 14 J/K/mol and the Glass transition temperature [2] is reported as -50.0 ± 3 °C.
In the case of CCCCn1cc[n+](C)c1.[Cl-] [1-butyl-3-methylimidazolium chloride], the “molar heat capacity at constant pressure” value ([1]; 298.15 K) is reported as 322.7 ± 14 J/K/mol, the “molar heat capacity at constant pressure” value ([1]; 323.15 K) is reported as 333.7 ± 14 J/K/mol and the Glass transition temperature [2] is reported as -69.0 ± 3 °C.
With CCCCn1cc[n+](C)c1.N#CN=C=[N-] [1-butyl-3-methylimidazolium dicyanamide] the “molar heat capacity at constant pressure” value ([1]; 298.15 K) was 364.6 ± 16 J/K/mol, the “molar heat capacity at constant pressure” value ([1]; 323.15 K) was 370 ± 16 J/K/mol and the mass density ([2]; 297.15 K) was 1058 ± 4 kg/m3. The mass density ([2]; 312.95 K) was 1052.5 ± 4.3 kg/m3, the mass density ([2]; 324.35 K) was 1046.6 ± 4.4 kg/m3 and the mass density ([2]; 333.95 K) was 1041.5 ± 4.6 kg/m3. For the same compound, the mass density ([2]; 344.15 K) was 1034 ± 4.8 kg/m3, the mass density ([2]; 355.85 K) was 1025.8 ± 5 kg/m3 and the Normal melting temperature ([2]; Crystal) was -6.0 ± 1 °C. It also gave a Glass transition temperature [2] of -90.0 ± 3 °C.
In the case of CCCCn1cc[n+](C)c1.F[P-](F)(F)(F)(F)F [1-butyl-3-methylimidazolium hexafluorophosphate], the “molar heat capacity at constant pressure” value ([1]; 298.15 K) is reported as 397.6 ± 8 J/K/mol, the “molar heat capacity at constant pressure” value ([1]; 323.15 K) is reported as 405.1 ± 8.1 J/K/mol and the Normal melting temperature ([2]; Crystal) is reported as 11.0 ± 1 °C. For the same compound, the Glass transition temperature [2] was -76.0 ± 3 °C.
In the case of CCCCn1cc[n+](C)c1.F[B-](F)(F)F [1-butyl-3-methylimidazolium tetrafluoroborate], the “molar heat capacity at constant pressure” value ([1]; 298.15 K) is reported as 351.5 ± 7 J/K/mol, the “molar heat capacity at constant pressure” value ([1]; 323.15 K) is reported as 358 ± 7.2 J/K/mol and the mass density ([2]; 295.45 K) is reported as 1204.8 ± 2.3 kg/m3. It also gave a mass density ([2]; 303.85 K) of 1200.5 ± 2.4 kg/m3, a mass density ([2]; 313.55 K) of 1194 ± 2.5 kg/m3 and a mass density ([2]; 328.25 K) of 1185 ± 2.6 kg/m3. For the same compound, the mass density ([2]; 343.85 K) was 1173.7 ± 2.7 kg/m3 and the Glass transition temperature [2] was -85.0 ± 3 °C.
With CCCCn1cc[n+](C)c1.O=S(=O)([O-])C(F)(F)F [1-butyl-3-methylimidazolium trifluoromethanesulfonate] the “molar heat capacity at constant pressure” value ([1]; 298.15 K) was 417.2 ± 8.3 J/K/mol, the “molar heat capacity at constant pressure” value ([1]; 323.15 K) was 423.1 ± 8.5 J/K/mol and the mass density ([2]; 295.75 K) was 1301.3 ± 4.1 kg/m3. For the same compound, the mass density ([2]; 303.95 K) was 1296.5 ± 4.1 kg/m3, the mass density ([2]; 313.35 K) was 1289.4 ± 4.1 kg/m3 and the mass density ([2]; 328.75 K) was 1279 ± 4.2 kg/m3. For the same compound, the mass density ([2]; 342.95 K) was 1270 ± 4.2 kg/m3 and the Normal melting temperature ([2]; Crystal) was 13.0 ± 1 °C.
